From ChEMBL document CHEMBL4321885, “Biomimetic Macrocyclic Inhibitors of Human Cathepsin D: Structure-Activity Relationship and Binding Mode Analysis” (J Med Chem, 2020)
Values after ≈ are worked out from the molar mass of the structure shown. Active and inactive are the calls of the source. The calls are words filed in the database; no cut-off is given here.

Legend:
PBMC = experiment: Cytotoxicity against human PBMC cells assessed as reduction in cell viability up to 100 uM measured after 72 hrs by Celltiter-glo assay; format: cell-based
[1] = Stability of the compound assessed as bovine trypsin-mediated compound hydrolysis at 25 ug measured after 18 hrs by HPLC analysis; format: ADME, Bos taurus; settings: cattle
[2] = biological target: Beta-secretase 1 (Homo sapiens) (UniProt P56817); experiment: Inhibition of recombinant human C-terminal 10His-tagged BACE1 expressed in mouse NS0 cells at 50 nM using Mca-Ser-Glu-Val-Asn-Leu-Asp-Ala-Glu-Phe-Arg-Lys(Dnp)-Arg-Arg as substrate preincubated for 10 mins followed by substrate addition and measured by FRET assay
Sequence of Beta-secretase 1 (Homo sapiens) (P56817 whole entry, the tested form may be a part): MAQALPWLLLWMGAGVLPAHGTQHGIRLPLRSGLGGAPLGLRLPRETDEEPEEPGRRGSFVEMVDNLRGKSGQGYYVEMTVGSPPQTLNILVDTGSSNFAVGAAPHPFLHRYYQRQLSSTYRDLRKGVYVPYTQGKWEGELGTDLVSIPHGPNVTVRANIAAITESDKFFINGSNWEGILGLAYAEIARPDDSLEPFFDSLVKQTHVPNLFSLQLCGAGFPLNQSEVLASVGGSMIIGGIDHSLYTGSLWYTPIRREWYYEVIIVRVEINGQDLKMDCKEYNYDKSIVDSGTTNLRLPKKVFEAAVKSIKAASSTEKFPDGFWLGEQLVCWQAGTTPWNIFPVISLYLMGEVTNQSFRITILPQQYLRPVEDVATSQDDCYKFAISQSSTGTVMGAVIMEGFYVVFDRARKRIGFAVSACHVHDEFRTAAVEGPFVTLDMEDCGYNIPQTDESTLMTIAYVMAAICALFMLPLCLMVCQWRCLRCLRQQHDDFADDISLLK

[3] = biological target: T1, Thermolysin (Geobacillus stearothermophilus) (UniProt P43133); experiment: Inhibition of Geobacillus stearothermophilus thermolysin at 1 uM using Abz-Ala-Gly-Leu-Ala-nitro-benzylamide as substrate preincubated for 10 mins followed by substrate addition and measured after 20 mins by fluorescence assay
T1 sequence (whole entry): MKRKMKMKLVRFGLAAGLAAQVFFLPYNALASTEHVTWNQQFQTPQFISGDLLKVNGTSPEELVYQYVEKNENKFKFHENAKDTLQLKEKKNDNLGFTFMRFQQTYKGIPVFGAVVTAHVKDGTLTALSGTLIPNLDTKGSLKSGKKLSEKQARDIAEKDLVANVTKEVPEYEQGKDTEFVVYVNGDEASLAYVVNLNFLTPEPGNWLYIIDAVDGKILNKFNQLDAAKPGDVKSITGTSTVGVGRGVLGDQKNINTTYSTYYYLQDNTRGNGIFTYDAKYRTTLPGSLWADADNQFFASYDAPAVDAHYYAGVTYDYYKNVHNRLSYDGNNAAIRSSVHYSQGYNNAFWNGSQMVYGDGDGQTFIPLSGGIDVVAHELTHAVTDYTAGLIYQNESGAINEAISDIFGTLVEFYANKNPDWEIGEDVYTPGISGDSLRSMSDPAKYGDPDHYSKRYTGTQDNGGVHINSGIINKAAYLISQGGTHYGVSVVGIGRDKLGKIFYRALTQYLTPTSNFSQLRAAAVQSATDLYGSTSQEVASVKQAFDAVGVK

Bos taurus [4] = species on record: Bos taurus; experiment: Inhibition of bovine chymotrypsin at 1 uM using Z-Phe-Arg-AMC as substrate preincubated for 10 mins followed by substrate addition and measured after 20 mins by fluorescence assay
Thermolysin = biological target: T2, Thermolysin (Geobacillus stearothermophilus, UniProt P43133); experiment: Stability of the compound assessed as Geobacillus stearothermophilus thermolysin-mediated compound hydrolysis at 25 ug measured after 18 hrs by HPLC analysis; format: ADME
T2 sequence (P43133 whole entry): T1 sequence (whole entry)

[5] = biological target: Protease (Human immunodeficiency virus 1) (UniProt Q9YQ12); experiment: Inhibition of HIV1 protease at 5 uM using Abz-Tyr-Ile-Nle-Nph-Gln-Arg as substrate preincubated for 10 mins followed by substrate addition and measured by FRET assay
Sequence of Protease (Human immunodeficiency virus 1) (Q9YQ12 as listed by the source): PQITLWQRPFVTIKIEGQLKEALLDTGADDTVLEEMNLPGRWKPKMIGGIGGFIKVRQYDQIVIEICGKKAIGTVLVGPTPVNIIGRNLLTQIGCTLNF

[6] = biological target: Beta-secretase 1 (Homo sapiens) (UniProt P56817); experiment: Inhibition of recombinant human C-terminal 10His-tagged BACE1 expressed in mouse NS0 cells at 5 uM using Mca-Ser-Glu-Val-Asn-Leu-Asp-Ala-Glu-Phe-Arg-Lys(Dnp)-Arg-Arg as substrate preincubated for 10 mins followed by substrate addition and measured by FRET assay
Renin (Homo sapiens) [7] = biological target: T3, Renin (Homo sapiens) (UniProt P00797); experiment: Inhibition of recombinant human N-terminal FLAG-tagged renin (67 to 406 residues) expressed in HEK cells at 50 nM using Arg-Glu(EDANS)-Ile-His-Pro-Phe-His-Leu-Val-Ile-His-Thr-Lys(Dabcyl)-Arg as substrate preincubated for 10 mins followed by substrate addition and measured by FRET assay
T3 sequence (whole entry): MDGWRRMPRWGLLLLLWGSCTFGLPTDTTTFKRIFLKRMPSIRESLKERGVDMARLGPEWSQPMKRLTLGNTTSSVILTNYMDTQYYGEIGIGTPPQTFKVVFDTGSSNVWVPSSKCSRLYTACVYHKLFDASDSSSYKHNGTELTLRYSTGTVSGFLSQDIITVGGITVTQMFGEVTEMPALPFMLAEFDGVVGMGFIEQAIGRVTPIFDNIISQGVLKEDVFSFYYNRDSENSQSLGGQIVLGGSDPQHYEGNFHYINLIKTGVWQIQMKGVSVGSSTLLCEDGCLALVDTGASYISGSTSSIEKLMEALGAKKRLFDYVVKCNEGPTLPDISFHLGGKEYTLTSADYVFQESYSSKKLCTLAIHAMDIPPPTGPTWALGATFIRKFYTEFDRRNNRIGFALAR

Bos taurus [8] = species on record: Bos taurus; experiment: Inhibition of bovine trypsin at 1 uM using Z-Phe-Arg-AMC as substrate preincubated for 10 mins followed by substrate addition and measured after 20 mins by fluorescence assay
Ixodes ricinus = experiment: Inhibition of Ixodes ricinus CatD expressed in Escherichia coli BL21(DE3) at 50 nM using Abz-Lys-Pro-Ala-Glu-Phe-Nph-Ala-Leu as substrate preincubated for 10 mins followed by substrate addition and measured by FRET assay
Cathepsin D = Cathepsin D (Homo sapiens, UniProt P07339); experiment: Inhibition of human placenta CatD using Abz-Lys-Pro-Ala-Glu-Phe-Nph-Ala-Leu as substrate preincubated for 10 mins followed by substrate addition and measured by FRET assay
Sequence of Cathepsin D (P07339 65-162 limits assumed): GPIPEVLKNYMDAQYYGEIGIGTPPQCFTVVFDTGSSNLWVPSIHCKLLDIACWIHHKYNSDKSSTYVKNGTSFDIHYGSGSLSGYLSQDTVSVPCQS
Sequence of Cathepsin D (P07339 169-412 limits assumed): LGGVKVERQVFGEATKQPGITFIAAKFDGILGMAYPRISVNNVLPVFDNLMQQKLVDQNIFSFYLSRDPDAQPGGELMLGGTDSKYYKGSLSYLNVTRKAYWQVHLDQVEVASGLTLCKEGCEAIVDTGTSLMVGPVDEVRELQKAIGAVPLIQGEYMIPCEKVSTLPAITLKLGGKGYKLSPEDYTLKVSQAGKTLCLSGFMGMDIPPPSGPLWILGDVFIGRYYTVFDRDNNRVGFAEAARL

[9] = Apparent permeability in human Caco2 cells at 5 uM measured after 5 hrs by LC-MS analysis; format: ADME, cell-based; settings: Caco-2
Renin (Homo sapiens) [10] = biological target: T3, Renin (Homo sapiens); experiment: Inhibition of recombinant human N-terminal FLAG-tagged renin (67 to 406 residues) expressed in HEK cells at 5 uM using Arg-Glu(EDANS)-Ile-His-Pro-Phe-His-Leu-Val-Ile-His-Thr-Lys(Dabcyl)-Arg as substrate preincubated for 10 mins followed by substrate addition and measured by FRET assay
Papain (Carica papaya) = biological target: T4, Papain (Carica papaya) (UniProt P00784); experiment: Inhibition of papaya papain at 1 uM using Z-Phe-Arg-AMC as substrate preincubated for 10 mins followed by substrate addition and measured after 20 mins by fluorescence assay
T4 sequence (whole entry): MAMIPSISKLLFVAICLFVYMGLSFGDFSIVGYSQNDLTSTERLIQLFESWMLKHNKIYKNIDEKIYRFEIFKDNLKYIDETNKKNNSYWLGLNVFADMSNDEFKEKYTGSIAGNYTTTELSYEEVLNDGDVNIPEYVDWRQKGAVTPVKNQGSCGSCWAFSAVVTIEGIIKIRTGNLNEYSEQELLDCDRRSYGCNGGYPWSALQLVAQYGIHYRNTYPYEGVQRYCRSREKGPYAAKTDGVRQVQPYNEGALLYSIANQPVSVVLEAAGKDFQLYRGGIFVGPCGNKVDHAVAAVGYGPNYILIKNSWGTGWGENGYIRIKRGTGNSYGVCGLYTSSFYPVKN

Papain = biological target: T5, Papain (Carica papaya, UniProt P00784); experiment: Stability of the compound assessed as papaya papain-mediated compound hydrolysis at 25 ug measured after 18 hrs by HPLC analysis; format: ADME
T5 sequence (P00784 whole entry): T4 sequence (whole entry)

[11] = biological target: Protease (Human immunodeficiency virus 1) (UniProt Q9YQ12); experiment: Inhibition of HIV1 protease at 50 nM using Abz-Tyr-Ile-Nle-Nph-Gln-Arg as substrate preincubated for 10 mins followed by substrate addition and measured by FRET assay
NHDF = experiment: Cytotoxicity against NHDF cells assessed as reduction in cell viability up to 100 uM measured after 72 hrs by Celltiter-glo assay; format: cell-based; settings: human
[12] = biological target: Saccharopepsin (Saccharomyces cerevisiae S288c) (UniProt P07267); experiment: Inhibition of Baker's yeast proteinase A at 50 nM using Abz-Lys-Pro-Ala-Glu-Phe-Nph-Ala-Leu as substrate preincubated for 10 mins followed by substrate addition and measured by FRET assay
Sequence of Saccharopepsin (Saccharomyces cerevisiae S288c) (P07267 whole entry): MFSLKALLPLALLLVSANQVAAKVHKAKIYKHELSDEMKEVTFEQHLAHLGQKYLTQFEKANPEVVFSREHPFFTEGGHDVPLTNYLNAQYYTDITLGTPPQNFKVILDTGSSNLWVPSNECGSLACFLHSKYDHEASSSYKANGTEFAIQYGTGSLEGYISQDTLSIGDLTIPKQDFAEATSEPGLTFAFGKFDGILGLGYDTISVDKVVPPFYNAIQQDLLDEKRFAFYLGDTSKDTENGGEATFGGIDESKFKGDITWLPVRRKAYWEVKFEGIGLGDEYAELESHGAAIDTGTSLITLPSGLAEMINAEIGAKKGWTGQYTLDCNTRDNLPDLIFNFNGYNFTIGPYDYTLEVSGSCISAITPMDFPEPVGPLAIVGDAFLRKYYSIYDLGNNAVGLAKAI

[13] = Stability of the compound assessed as bovine chymotrypsin-mediated compound hydrolysis at 25 ug measured after 18 hrs by HPLC analysis; format: ADME, Bos taurus; settings: cattle
[14] = Solubility of the compound in pH 7.4 phosphate buffered saline by HPLC-MS analysis; format: physicochemical

Compound | Activity (PBMC) | Stability [1] | inhibition [2] | inhibition [3] | inhibition (Bos taurus [4]) | Stability (Thermolysin) | inhibition [5] | inhibition [6] | inhibition (Renin (Homo sapiens) [7]) | inhibition (Bos taurus [8]) | inhibition (Ixodes ricinus) | IC50 (Cathepsin D) | inhibition (Renin (Homo sapiens) [10]) | inhibition (Papain (Carica papaya)) | Stability (Papain) | inhibition [11] | Activity (NHDF) | inhibition [12] | Stability [13] | other results
CC(C)[C@@H]1NC(=O)C[C@H](O)[C@H](Cc2ccccc2)NC(=O)OCCCCCCCCCCCNC1=O | Non-Toxic | Stable | inactive | inactive | inactive | Stable | Active | Active | inactive | inactive | Active | 2.5 nM | Active | inactive | Stable | inactive | Non-Toxic | Active | Stable | Papp at 5 h, 5 µM [9]: 1.68 ×10⁻⁶ cm/s
O=C1C[C@H](O)[C@H](Cc2ccccc2)NC(=O)CCCCCCCCCCCNC(=O)[C@H](Cc2cccnc2)N1 | Non-Toxic | Stable | inactive | inactive | inactive | Stable | Active | Active | inactive | inactive | Active | 1.1 nM | Active | inactive | Stable | inactive | Non-Toxic | Active | Stable | solubility [14]: 342 µg/mL (≈ 637 µM)
